Results from patent US20260226417A1, “METHOD FOR INHIBITING AGING OF STEM CELLS” (ENCELL CO., LTD, priority 2023, published 2026).

How the values were obtained:
[1] = tested on: senescence markers P16 and P21; assay: qRT-PCR of senescence markers p16 and p21 at P10 after treatment at each passage; assay type: cell-based, human; settings: 160 μM for 24 hours at each passage
Method: (§1) Specifically, qRT-PCR performed in this example is as follows: after treating the replicative senescence model (P18) with nervonic acid for 3 days, total RNA was extracted using Trizol (Invitrogen, MA, USA) according to the method provided by the vendor. After quantifying the extracted total RNA, random hexamer and dNTP were added, and PCR was performed at 65° C. for 5 minutes. 5× SSIV buffer, 100 mM DTT, RNAse OUT, and Superscript IV RT were added and reverse transcription was performed to synthesize cDNA, and then qRT-PCR was performed to measure gene expression, and the expression levels were compared through 2^−ΔΔCt analysis.
(§2) Example 8. Confirmation Of anti-senescence efficacy by treating various human tissue-derived mesenchymal stem cells with nervonic acid Human-derived mesenchymal stem cells were treated with nervonic acid (160 μM) at each passage during cell culture from control cells (P5) to P10 to determine whether continuous treatment with nervonic acid during cell culture at early passage numbers was able to delay cellular senescence.
Specifically, from the day after human-derived mesenchymal stem cells were subcultured, treatment with 160 μM nervonic acid or an equivalent amount of DMSO (control) for 24 hours was performed, followed by replacement with the existing culture medium the next day. The above process was repeated to perform subculture up to P10 (passage 10). […]

[2] = tested on: replicative senescence model of human umbilical cord-derived mesenchymal stem cells (P18); assay: Cytotoxicity by CCK-8 assay, replicative senescence model (P18); assay type: cell-based; settings: 160 μM, P18, CCK-8
[3] = tested on: senescence markers P16 and P21; assay: qRT-PCR of senescence markers P16 and P21 in replicative senescence model (P18); assay type: cell-based, human; settings: 160 μM, 3 days
Method: (§3) In order to verify the anti-senescence efficacy of nervonic acid, the expression levels of senescence-related markers in a control group (P5) and a replicative senescence model (P18) were measured after treatment with nervonic acid (160 μM).
as §1

[4] = tested on: senescence markers P16 and P21; assay: Western blotting of P16 and P21 in replicative senescence model (P18); assay type: cell-based, human; settings: 160 μM
Method: as §3
Specifically, Western blotting performed in this example is as follows: cells were collected, and the cell membrane was broken using RIPA buffer, followed by centrifugation to collect the supernatant. Intracellular proteins were quantified using the Bradford assay (Bio-Rad, USA), and 20 μg of protein for each sample was loaded onto the gel, followed by electrophoresis using SDS. After transferring the protein to a polyvinylidene fluoride (PVDF) membrane, 1× TBST (Tris-buffered saline with 0.1% Tween 20) solution containing 5% skim milk (BD Difco, USA) was added and incubated at room temperature for 1 hour. Thereafter, P16 (1: 1000, Cell Signaling, USA), P21 (1: 1000, Cell Signaling, USA), and β-actin (1:5000; Santa Cruz, USA) antibodies were added and incubated overnight at 4° C. Then, the secondary antibody (anti-rabbit IgG-HRP; ABClon, Korea) was added and incubated at room temperature for one hour. Afterwards, the blots were visualized using ECL (Bio-Rad, USA) and assessed.

[5] = tested on: human bone marrow-derived mesenchymal stem cells (BM-MSCs/passage 15); assay: β-galactosidase staining, senescent BM-MSCs; assay type: cell-based; settings: BM-MSCs passage 15, 3 days
Method: Human bone marrow-derived mesenchymal stem cells (BM-MSCs) were purchased from Cambrex (Lonza, #PT-2501).
Each of the obtained mesenchymal stem cells was subcultured in aMEM (a-modified Minimum Essential Media) containing 10% fetal bovine serum (FBS) and 0.5% gentamicin (10 mg/ml).
The replicative senescence models of human adipose-derived mesenchymal stem cells (AD-MSCs/passage 18), human bone marrow-derived mesenchymal stem cells (BM-MSCs/passage 15), human umbilical cord blood-derived mesenchymal stem cells (UCB-MSCs/passage 16), and human placenta-derived mesenchymal stem cells (PL-MSCs/passage 18) established as described above were treated with nervonic acid for 3 days, and β-galactosidase staining was performed to observe the extent of senescence.

[6] = tested on: replicative senescence model of human umbilical cord-derived mesenchymal stem cells (P18); assay: β-galactosidase staining, extent of senescence, replicative senescence model (P18); assay type: cell-based; design: dose or concentration left out as unconfirmed
Method: Compared to the control cells (P5) in which the extent of senescence was 0.21 % of the total, the extent of senescence in the senescence-induced mesenchymal stem cells (P18) was increased to 42.44% of the total, confirming the progression of replicative senescence (FIGs. 1a and 1b). Specifically, individual cells (5×10^4/well) were suspended in a 6-well plate and stabilized for 24 hours, followed by adding β-galactosidase staining solution and staining for 24 hours, after which the extent of senescence was measured under a microscope.
Therefore, it was confirmed that this concentration was an optimal concentration that inhibited the extent of senescence by inducing apoptosis specifically in the replicative senescence model (P18) without affecting the cytotoxicity of the control cells (P5).

[7] = tested on: replicative senescence model of human umbilical cord-derived mesenchymal stem cells (P18); assay: Screening of gut microbiota-derived metabolite library for senescence control (primary HTS and secondary cell viability screening); assay type: cell-based
Text: Example 2. Screening of gut microbiota-derived metabolites for senescence control of human umbilical cord-derived mesenchymal stem cells In order to determine differences in metabolite reactivity depending on the senescence status of human umbilical cord-derived mesenchymal stem cells, a library of 485 gut microbiota-derived metabolites was used to select candidates that inhibit the proliferation or cause death of replicative senescent stem cells.
Thereby, 13 candidates showing low viability only in the replicative senescence model (P18) without affecting the viability of the control cells (P5) were selected by primary screening, and the experimental group was treated with the metabolite at 25 μM, 50 μM, 100 μM, 200 μM, 300 μM, 400 μM, and 500 μM to determine the optimal concentration of the metabolite by secondary screening, analyzing the senescence control effect at a total of 7 metabolite concentrations.

[8] = tested on: human-derived mesenchymal stem cells, control cells (P5) subcultured to P10; assay: Doubling time by CCK-8 assay at P10 after treatment at each passage; assay type: cell-based; settings: 160 μM for 24 hours at each passage, at P10, CCK-8
Method: as §2
Specifically, from the day after human-derived mesenchymal stem cells were subcultured, treatment with 160 μM nervonic acid or an equivalent amount of DMSO (control) for 24 hours was performed, followed by replacement with the existing culture medium the next day. The above process was repeated to perform subculture up to P10 (passage 10). As such, B galactosidase staining for measuring cellular senescence was performed at P7, P8, P9, and P10, and cell doubling time and RNA extraction for qRT-PCR were both performed at P10. A more specific procedure therefor was carried out in the same manner as described above.
Also, the doubling time of the control group (DMSO) and the nervonic acid treatment group was measured using CCK (cell counting kit)-8 assay.

SMILES: CCCCCCCC/C=C\CCCCCCCCCCCCCC(=O)O [nervonic acid]
- p16 mRNA expression, fold compared to control group (DMSO) [1]: 0.84±0.05 fold
- p21 mRNA expression, fold compared to control group (DMSO) [1]: 0.84±0.03 fold
- cell viability, fold decrease compared to before treatment [2]: 0.68±0.03 fold
- P16 mRNA level, fold compared to before treatment [3]: 0.78±0.01 fold
- P21 mRNA level, fold compared to before treatment [3]: 0.82±0.02 fold
- P16 protein expression level, fold compared to before treatment [4]: 0.65±0.07 fold
- P21 protein expression level, fold compared to before treatment ([4]; not significant): 0.82±0.07 fold
- progression of senescence (β-galactosidase staining) compared to control group (DMSO) [5]: progression of senescence was significantly inhibited
- extent of senescence (β-galactosidase staining), fold decrease compared to before treatment [6]: 0.41±0.04 fold
- senescence control effect in secondary screening ([7]; 13 candidates tested at 25-500 μM (7 concentrations), P18 vs P5): greatest effect on controlling senescence
- concentration exhibiting senescence control efficacy in secondary screening ([7]; secondary screening): about 200 μM
- doubling time [8]: 24.7 h
